This is an account of results in patent US10851067B2, “Kv7 channel activators compositions and methods of use” (Knopp Biosciences LLC, priority 2018, dated 2020).

Some results are limits rather than exact numbers.

This assay addresses Kv7.2/7.3 (Homo sapiens, UniProt O43525+O43526). The assay is described as follows: Kv7.2/7.3 Thallium Flux Assay. The conditions noted are these: read-out: Kv7.2/7.3 Activity: EC50 of Kv7.2/Kv7.3 activation. It is filed as cell-based. Also on record: host or cells: HEK cells, tetracycline-inducible expression. The text has this:
The Thallium Flux Assay is used as a surrogate indicator of potassium channel activity.
The experimental protocol was adapted from the FluxOR™ II Green Potassium Ion Channel Assay User Guide (Pub. No. MAN0016084, Invitrogen). Conditions were optimized for the Kv7.2/7.3 cell line.
The hKV7.2/7.3 cell line was obtained from Chantest (Cleveland, Ohio 44128) cat. #CT6147.
Kv7.2/7.3 cells were maintained in a media containing DMEM/F12; 50/50 (GIBCO cat. #11330), 10% Fetal Bovine Serum (FBS) (GIBCO cat. #26140), 100 units/mL Penicillin-Streptomycin (GIBCO cat. #15140), 0.005 mg/ml Blasticidin (SIGMA 15205), 0.5 mg/mL Geneticin (GIBCO cat. #10131), and 0.1 mg/mL Zeocin (GIBCO cat. #R25001). One day prior to experimentation, cells were plated in 96 well clear bottom plates (Corning cat. #353219) in a media without Blasticidin, Geneticin, or Zeocin. Channel expression was induced by adding tetracycline (Bioline cat. #BIO87030) at a final concentration of 10 ng/mL.
The test compound is diluted in a mixture of 0.1% DMSO/extracellular solution with an eight-point concentration range from 0.014 μM to 30 μM. Serial dilutions were made on a Biomek NXP (BECKMAN COULTER).
Measurement and Data Analysis:
A plate reader (Enspire, Perkin Elmer) is used to characterize the ion-channel modulating properties of novel compounds using an excitation wavelength of 475 nm and an emission wavelength of 530 nm. After a 15 sec baseline measurement, the stimulus buffer containing thallium and potassium is injected. A final endpoint measure is taken after 90 sec. Responses are normalized to positive control (retigabine, 30 µM max). Mean normalized responses at each concentration tested are fit to the standard Hill equation to generate an EC50 and maximal response.
As for `CC(C)(C)n1c(NC(=O)CC2CC(F)(F)C2(F)F)nc2c(F)cc(C#N)c(F)c21` (single isomer, unassigned) [Example 496, N-(1-(tert-butyl)-6-cyano-4,7-difluoro-1H-benzo[d]imidazol-2-yl)-2-(2,2,3,3-tetrafluorocyclobutyl)acetamide], the EC50 was less than 1000 nM.
Then `CC(C(=O)Nc1nc2c(F)cc(C(C)(C)O)cc2n1C1CCC1)C1(C(F)(F)F)CC1` (single isomer, unassigned) [Example 497, N-(1-cyclobutyl-4-fluoro-6-(2-hydroxypropan-2-yl)-1H-benzo[d]imidazol-2-yl)-2-(1-(trifluoromethyl)cyclopropyl)propanamide], with less than 1000 nM; and `CC1(n2c(NC(=O)CC3CC(F)(F)C3(F)F)nc3cc(F)c(F)cc32)CCC1` (single isomer, unassigned) [Example 499, N-(5,6-difluoro-1-(1-methylcyclobutyl)-1H-benzo[d]imidazol-2-yl)-2-(2,2,3,3-tetrafluorocyclobutyl)acetamide], with less than 1000 nM.
Under `CC(C)(O)c1cc(F)c2nc(NC(=O)CC3CC(F)(F)C3(F)F)n(C3(C)CCC3)c2c1` (single isomer, unassigned) [Example 500, N-(4-fluoro-6-(2-hydroxypropan-2-yl)-1-(1-methylcyclobutyl)-1H-benzo[d]imidazol-2-yl)-2-(2,2,3,3-tetrafluorocyclobutyl)acetamide] stands less than 1000 nM; under `CC(C(=O)Nc1nc2c(F)cc(C#N)cc2n1C1(C)CCC1)C1(C(F)(F)F)CC1` (single isomer, unassigned) [Example 503, N-(6-cyano-4-fluoro-1-(1-methylcyclobutyl)-1H-benzo[d]imidazol-2-yl)-2-(1-(trifluoromethyl)cyclopropyl)propanamide], less than 1000 nM; under `CC1(n2c(NC(=O)CC3CC(F)(F)C3(F)F)nc3c(F)cc(C#N)c(F)c32)CCC1` (single isomer, unassigned) [Example 504, N-(6-cyano-4,7-difluoro-1-(1-methylcyclobutyl)-1H-benzo[d]imidazol-2-yl)-2-(2,2,3,3-tetrafluorocyclobutyl)acetamide], less than 1000 nM.
Consider `COc1cc(C#N)cc2c1nc(NC(=O)CC1CC(F)(F)C1(F)F)n2C(C)(C)C` (single isomer, unassigned) [Example 506, N-(1-(tert-butyl)-6-cyano-4-methoxy-1H-benzo[d]imidazol-2-yl)-2-(2,2,3,3-tetrafluorocyclobutyl)acetamide], for which the EC50 was less than 1000 nM.
Take `CC(C(=O)Nc1nc2c(F)cc(C(C)(C)O)cc2n1C1CCC1)C1(C(F)(F)F)CC1` (single isomer, unassigned) [Example 508, N-(1-cyclobutyl-4-fluoro-6-(2-hydroxypropan-2-yl)-1H-benzo[d]imidazol-2-yl)-2-(1-(trifluoromethyl)cyclopropyl)propanamide]: the EC50 lay within 1000 to 3000 nM.
Under `CC(C)(C)n1c(NC(=O)CC2CC(F)(F)C2(F)F)nc2ccc(F)c(F)c21` (single isomer, unassigned) [Example 509, N-(1-(tert-butyl)-6,7-difluoro-1H-benzo[d]imidazol-2-yl)-2-(2,2,3,3-tetrafluorocyclobutyl)acetamide] stands less than 1000 nM.
`CC1(n2c(NC(=O)CC3CC(F)(F)C3(F)F)nc3c(F)cc(C#N)cc32)CCC1` (single isomer, unassigned) [Example 512, N-(6-cyano-4-fluoro-1-(1-methylcyclobutyl)-1H-benzo[d]imidazol-2-yl)-2-(2,2,3,3-tetrafluorocyclobutyl)acetamide]: the EC50 is less than 1000 nM.
Under `CC1(n2c(NC(=O)CC3CC(F)(F)C3(F)F)nc3ccc(F)c(F)c32)CCC1` (single isomer, unassigned) [Example 513, N-(6,7-difluoro-1-(1-methylcyclobutyl)-1H-benzo[d]imidazol-2-yl)-2-(2,2,3,3-tetrafluorocyclobutyl)acetamide] stands less than 1000 nM.
Turning to `CC(C(=O)Nc1nc2c(F)cc(C(C)(C)O)cc2n1C1CCC1)C(C)(C)C(F)(F)F` (single isomer, unassigned) [Example 515, N-(1-cyclobutyl-4-fluoro-6-(2-hydroxypropan-2-yl)-1H-benzo[d]imidazol-2-yl)-4,4,4-trifluoro-2,3,3-trimethylbutanamide], the EC50 is less than 1000 nM.
Under `CC(C)(O)c1cc(F)c2nc(NC(=O)CC3CC(F)(F)C3(F)F)n(C3(C)CCC3)c2c1` (single isomer, unassigned) [Example 519, N-(4-fluoro-6-(2-hydroxypropan-2-yl)-1-(1-methylcyclobutyl)-1H-benzo[d]imidazol-2-yl)-2-(2,2,3,3-tetrafluorocyclobutyl)acetamide] stands less than 1000 nM; under `CC1(n2c(NC(=O)CC3CC(F)(F)C3(F)F)nc3cc(F)cc(F)c32)CCC1` (single isomer, unassigned) [Example 523, N-(5,7-difluoro-1-(1-methylcyclobutyl)-1H-benzo[d]imidazol-2-yl)-2-(2,2,3,3-tetrafluorocyclobutyl)acetamide], less than 1000 nM.
Then `CC1(n2c(NC(=O)CC3CC(F)(F)C3(F)F)nc3cc(F)ccc32)CCC1` (single isomer, unassigned) [Example 525, N-(5-fluoro-1-(1-methylcyclobutyl)-1H-benzo[d]imidazol-2-yl)-2-(2,2,3,3-tetrafluorocyclobutyl)acetamide], with less than 1000 nM; and `CC1(n2c(NC(=O)CC3CC(F)(F)C3(F)F)nc3cc(F)ccc32)CCC1` (single isomer, unassigned) [Example 526, N-(5-fluoro-1-(1-methylcyclobutyl)-1H-benzo[d]imidazol-2-yl)-2-(2,2,3,3-tetrafluorocyclobutyl)acetamide], with less than 1000 nM.
Then `CC(C)(C)n1c(NC(=O)CC2CC(F)(F)C2(F)F)nc2cc(F)ccc21` (single isomer, unassigned) [Example 528, N-(1-(tert-butyl)-5-fluoro-1H-benzo[d]imidazol-2-yl)-2-(2,2,3,3-tetrafluorocyclobutyl)acetamide], with less than 1000 nM; and `CC(C)(C)n1c(NC(=O)CC2CC(F)(F)C2(F)F)nc2cc(F)ccc21` (single isomer, unassigned) [Example 529, N-(1-(tert-butyl)-5-fluoro-1H-benzo[d]imidazol-2-yl)-2-(2,2,3,3-tetrafluorocyclobutyl)acetamide], with less than 1000 nM; and `CC(C)(C)n1c(NC(=O)CC2CC(F)(F)C2(F)F)nc2cc(F)cc(F)c21` (single isomer, unassigned) [Example 532, N-(1-(tert-butyl)-5,7-difluoro-1H-benzo[d]imidazol-2-yl)-2-(2,2,3,3-tetrafluorocyclobutyl)acetamide], with less than 1000 nM.
As to `CC(C)(C)n1c(NC(=O)CC2CC(F)(F)C2(F)F)nc2cc(F)c(Cl)cc21` (single isomer, unassigned) [Example 535, N-(1-(tert-butyl)-6-chloro-5-fluoro-1H-benzo[d]imidazol-2-yl)-2-(2,2,3,3-tetrafluorocyclobutyl)acetamide], the EC50 is less than 1000 nM.
In the case of `CC1(n2c(NC(=O)CC3CC(F)(F)C3(F)F)nc3ccc(F)c(C#N)c32)CCC1` (single isomer, unassigned) [Example 536, N-(7-cyano-6-fluoro-1-(1-methylcyclobutyl)-1H-benzo[d]imidazol-2-yl)-2-(2,2,3,3-tetrafluorocyclobutyl)acetamide], the EC50 is less than 1000 nM.
